Assay results reported in patent publication US6531628B1, “Substantive water-soluble 2-hydroxy sulfobetaines of cinnamidoalkylamines” (Galaxy Surfactants Ltd., priority 2001, dated 2003).
Entries after “also recorded” stand apart in the source; their conditions may differ.

Tests used:
[1] = Compatibility with anionic surfactant in formulation; assay type: physicochemical; settings: sodium lauryl ether sulphate based transparent shampoo / transparent bathing bar; N,N-dimethyl ammonium)-2-hydroxy propane-1-sulph
Description: The major ingredients were mixed with heating to 50° C. until a uniform homogeneous mixture was formed. The resulting mixture was then cooled to room temperature with continuous stirring. The required chelating agent, colour, perfume were added. The viscosity was adjusted to 2500 cps with sodium chloride.
All ingredients were heated together under stirring to 70° C. till the reaction mass became homogenous and transparent. The reaction mass was cooled to 40° C. and the required amounts of chelating agents, perfume and colour were added. The molten mass was cast in moulds of desired shape to yield transparent bathing bar.

[2] = Molar extinction coefficient (UV absorption); assay type: physicochemical; settings: at λmax 306 nm in water

- molar extinction coefficient, ∈ [2]: 24,000
Structure (SMILES): COc1ccc(C=CC(=O)NCCC[N+](C)(C)CC(O)CS(=O)(=O)[O-])cc1 (centres unmarked) [Example I, 3-(N-p-Methoxy Cinnamidopropyl, N,N-Dimethyl Ammonium)-2-hydroxy Propane-1-sulphonate]
- compatibility with anionic surfactant [1]: completely compatible; also recorded: total compatibility
